In patent US20090105341A1, “PROCESS FOR THE PRODUCTION OF TRANS-10, CIS 12 OCTADECADIENOIC ACID” (Teagasc Dairy Products Research Centre, priority 2005, published 2009):
Read-outs that look alike come from different tables or passages of the source.

Experiments:
[1] = tested on: SW480 cells; conditions: cited from earlier work; for Reduction of cell viability: SW480, Miller et al. (2002); for Effect on SW480 cancer cells: 2003
[2] = tested on: MCF-7 breast cancer cell line; conditions: cited from earlier work; for Decrease in cell numbers / cell viability: MCF-7, 20 μg/ml for 8 days, O'Shea et al., 1999
[3] = dairy cows, cited from earlier work
[4] = tested on: human colon cancer cells SW480; assay: Anti-proliferative activity of fermented oils, MTS cell viability
Experimental: The probiotic strain Lactobacillus paracasei ssp. paracasei NFBC 338 (Lb. paracasei NFBC 338) was previously isolated from the human gastrointestinal tract (GIT), and obtained from University College Cork, Ireland under a restricted materials transfer agreement. Lb. paracasei NFBC 338 was routinely cultured overnight (˜17 h) in MRS broth (Oxoid Ltd., Hampshire, UK) and incubated at 37° C. under anaerobic conditions using anaerobic jars containing Anaerocult A gas packs (Merck, Darmstedt, Germany). L. lactis carrying the plasmids pNZ44 were routinely cultured in the presence of chloramphenicol (5 μg/ml) as a selective marker. Lb. paracasei NFBC harboring the vector pMSP3535 were routinely cultured with erythromycin (10 μg/ml) as selective marker. E. coli TOP 10 (Invitrogen) harbouring the plasmid pNZ44 was cultured in LB (Luria-Bertani)-media supplemented with chloramphenicol (20 μg/ml). Human colon cancer cells were obtained from the American Type Culture Collection (ATCC, Manassas, Va., USA). The t10, c12 CLA isomer (98%+purity) was obtained from Matreya (Matreya Inc., PA, USA;). Cell culture media and supplements were purchased from Sigma Aldrich Ireland Ltd. (Dublin, Ireland), unless otherwise stated. SW480 cells were maintained in Dulbecco's […] (DMEM) supplemented with 5% (v/v) fetal bovine serum, 0.2 mM L-glutamine, 1 mM HEPES and 1 unit/ml penicillin and streptomycin. SW480 cells were grown in 96 well plates and maintained at 37° C. in a humidified atmosphere and a pH of 7.2-7.4 by a required flow of 95% air and 5% CO2.
To examine the anti-proliferative activity of the oils extracted following fermentation of the cultures (L. lactis pNZ44-coPAI and E. coli pNZ44-coPAI) in respective media containing linoleic acid (0.5 mg/ml), human colon cancer cells SW480 were cultured in the presence of different concentrations of the fermented oils. Initially, 1×10^4 cells were seeded in wells and cultured for 24 h at 37° C. to allow the cells to adhere to the surface prior to treatment with 5-20 μg t10, c12 CLA (from fermented oils and t10, c12 CLA standards in ethanol) and 5-25 μg linoleic acid (control unfermented oil and Sigma standard)/ml of media. […] Control flasks were supplemented with ethanol to a final concentration of 0.1% (v/v). Following incubation for 5 days, cell viability was measured and relative cell number were determined using the MTS method (Promega Corporation, Madison, Wis., USA), a colorimetric method for determining the number of viable cells in proliferation or cytotoxicity assays subsequent to incubation with MTS tetrazolium compound. Following incubation with MTS for 2 h, the absorbance was recorded at 492 nm with a 96-well plate reader. Cell viability (%) after treatment is expressed relative to the ethanol control, which represented 100%.
All figures are related to ethanol controls=100% cell viability.

CCCCCC/C=C/C=C\CCCCCCCC(=O)O [c9, t11 CLA, cis-9, trans-11-octadecadienoic acid]
Reduction of cell viability [1]: 40-52%
Decrease in cell numbers / cell viability [2]: 60%
Effect on milk fat ([3]; abomasal infusion): no effect

CCCCC/C=C\C/C=C\CCCCCCCC(=O)O [control-unfermented LA]
Effect on the cell viability ([4]; SW480, 5-25 μg/ml linoleic acid): only a minor effect

CCCCC/C=C\C/C=C\CCCCCCCC(=O)O [linoleic acid, 9 cis, 12 cis-octadecadienoic acid]
viability at 25 µg/mL ([4]; Homo sapiens, SW480, 120 h, read-out: Cell viability): 93.2%
Difference in cell viability versus control-linoleic acid (unfermented oil) ([4]; Student's t test): No significant difference
Effect on SW480 cancer cells ([1]; 16.9 μg/ml media (60.2 μM), Miller et al.): slightly proliferative effect
Effect on SW480 cancer cells ([1]; 42.8 μg/ml media (152.5 μM), Miller et al.): anti-proliferative effect
Increase of viability ([1]; SW480, same amount (16 μg/ml), 4 days): 23%

CCCCC/C=C\C=C\CCCCCCCCC(=O)O [t10, c12 CLA, trans-10, cis-12 octadecadienoic acid]
Difference in cell viability versus L. lactis t10, c12 CLA ([4]; 10-15 μg/ml (p<0.001) and 20 μg/ml (p<0.01)): significant difference
Difference in cell viability versus E. coli t10, c12 CLA (fermented oil) ([4]; at any concentration, Student's t test): no significant difference
Reduction of viability ([1]; SW480, 4 days incubation with 16 μg/ml, Miller et al., 2001): 50-60%
Reduction of cell viability [1]: 47-61%
Decrease in cell numbers / cell viability [2]: 15%
Reduction of viability ([2]; MCF-7, 4 days incubation with 16 μg/ml, Miller et al., 2001): 50-60%
Decrease in milk fat yield ([3]; 4 days abomasal infusion): 44%
Reduction in milk fat percentage ([3]; 4 days abomasal infusion): 42%
